In one test the target is PRMT5 (Homo sapiens (Human), UniProt O14744). The test is described as follows: Inhibitory activity against PRMT5 enzyme by radioisotopic method. It is filed as biochemical. Particulars: PRMT5 5 nM, [3H]-SAM 0.3 μM, polypeptide substrate GL-27 100 nM, room temperature. The method, boiled down:
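PRMT5 (5 nM) preincubated with compound and [3H]-SAM (0.3 μM) 60 min at RT in Tris pH 8.0/Tween-20/DTT, 1% DMSO; biotinylated GL-27 peptide (100 nM) added, 120 min RT, stopped with cold SAM. Peptide captured on streptavidin FlashPlate, CPM counted; IC50 from four-parameter fit of % inhibition.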
PRMT5, sequence (O14744 whole entry): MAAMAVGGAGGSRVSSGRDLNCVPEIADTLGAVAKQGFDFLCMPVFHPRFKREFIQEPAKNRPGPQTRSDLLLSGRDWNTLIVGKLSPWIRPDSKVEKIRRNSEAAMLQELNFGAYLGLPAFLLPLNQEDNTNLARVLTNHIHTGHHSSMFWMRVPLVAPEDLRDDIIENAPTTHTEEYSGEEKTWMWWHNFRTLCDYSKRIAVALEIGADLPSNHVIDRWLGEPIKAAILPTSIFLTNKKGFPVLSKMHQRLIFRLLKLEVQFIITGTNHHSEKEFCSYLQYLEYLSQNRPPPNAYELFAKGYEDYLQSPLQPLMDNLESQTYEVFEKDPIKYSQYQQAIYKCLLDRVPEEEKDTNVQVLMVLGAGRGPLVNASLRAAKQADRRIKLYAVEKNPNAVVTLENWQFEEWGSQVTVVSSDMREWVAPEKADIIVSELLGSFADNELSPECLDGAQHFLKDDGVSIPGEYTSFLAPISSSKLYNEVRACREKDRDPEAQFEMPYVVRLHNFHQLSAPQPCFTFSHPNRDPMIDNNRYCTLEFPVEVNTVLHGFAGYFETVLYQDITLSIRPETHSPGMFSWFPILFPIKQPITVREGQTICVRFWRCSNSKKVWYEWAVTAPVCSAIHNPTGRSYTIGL
PRMT5, sequence (Q9BQA1 whole entry partner): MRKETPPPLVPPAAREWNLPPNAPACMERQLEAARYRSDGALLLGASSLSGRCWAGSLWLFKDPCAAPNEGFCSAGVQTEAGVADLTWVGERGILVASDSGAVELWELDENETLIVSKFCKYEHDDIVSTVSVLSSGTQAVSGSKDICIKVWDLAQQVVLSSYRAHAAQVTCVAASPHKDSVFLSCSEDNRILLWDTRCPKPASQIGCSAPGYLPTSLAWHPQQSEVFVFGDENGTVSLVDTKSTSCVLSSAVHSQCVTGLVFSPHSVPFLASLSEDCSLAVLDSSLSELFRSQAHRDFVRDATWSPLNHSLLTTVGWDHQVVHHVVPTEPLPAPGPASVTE
With `CC(C)(C)c1ccc(Nc2cc(N3CC[C@H](N4CCc5ccccc5C4)[C@@H](O)C3)ncn2)cc1` (relative stereo) [Example 39, trans-1-(6-((4-t-butylphenyl)amino)pyrimidin-4-yl)-4-(3,4-dihydroisoquinolin-2(1H)-yl)piperidin-3-ol], the IC50 is below 100 nM.

Molecule `O[C@@H]1CN(c2cc(Nc3cccc(-c4ccccc4)c3)ncn2)CC[C@H]1N1CCc2ccccc2C1` (relative stereo) [Example 74, trans-1-(6-([1,1′-biphenyl]-3-ylamino)pyrimidin-4-yl)-4-(3,4-dihydroisoquinolin-2(1H)-yl)piperidin-3-ol] displayed a concentration for half-maximal inhibition (IC50) below 100 nM.

For `O[C@H]1CN(c2cc(Nc3ccc(C4CC4)cc3)ncn2)CC[C@@H]1N1CCc2ccccc2C1` (relative stereo) [Example 38, trans-1-(6-((4-cyclopropylphenyl)amino)pyrimidin-4-yl)-4-(3,4-dihydroisoquinolin-2(1H)-yl)piperidin-3-ol], the IC50 is below 100 nM.

`O[C@H]1CN(c2cc(Nc3ccc(N4CCOCC4)cc3)ncn2)CC[C@@H]1N1CCc2ccccc2C1` (relative stereo) [Example 49, trans-4-(3,4-dihydroisoquinolin-2(1H)-yl)-1-(6-((4-morpholinylphenyl)amino)pyrimidin-4-yl)piperidin-3-ol]: the IC50 is below 100 nM.

Molecule `O[C@H]1CN(c2cc(Nc3ccc(F)cc3)ncn2)CC[C@@H]1N1CCc2ccccc2C1` (relative stereo) [Example 30, trans-4-(3,4-dihydroisoquinolin-2(1H)-yl)-1-(6-((4-fluorophenyl)amino)-pyrimidin-4-yl)piperidin-3-ol] showed an IC50 below 100 nM.

Turning to `COc1ccc(F)cc1Nc1cc(N2CC[C@@H](N3CCc4ccccc4C3)[C@H](O)C2)ncn1` (relative stereo) [Example 92, trans-1-(6-((5-fluoro-2-methoxyphenyl)amino)pyrimidin-4-yl)-4-(3,4-dihydroisoquinolin-2(1H)-yl)piperidin-3-ol], the IC50 is below 100 nM.

`O[C@H]1CN(c2cc(Nc3cccc(F)c3)ncn2)CC[C@@H]1N1CCc2ccccc2C1` (relative stereo) [Example 42, trans-1-(6-((3-fluorophenyl)amino)pyrimidin-4-yl)-4-(3,4-dihydroisoquinolin-2(1H)-yl)piperidin-3-ol] gave a concentration for half-maximal inhibition (IC50) below 100 nM.

With `O[C@H]1CN(c2cc(Nc3cccc4c3OCO4)ncn2)CC[C@@H]1N1CCc2ccccc2C1` [Example 83, trans-1-(6-(benzo[d][1,3]dioxazol-4-ylamino)pyrimidin-4-yl)-4-(3,4-dihydroisoquinolin-2(1H)-yl)piperidin-3-ol], the concentration for half-maximal inhibition (IC50) was below 100 nM.

In turn, `CC(=O)N1CCC(Nc2cc(C(=O)N3CC[C@H](N4CCc5ccccc5C4)[C@@H](O)C3)nc(N3CCOCC3)n2)CC1` (relative stereo) [Example 144, 1-(4-((6-(trans-4-(3,4-dihydroisoquinolin-2(1H)-yl)-3-hydroxypiperidine-1-carbonyl)-2-morpholinopyrimidin-4-yl)amino)piperidin-1-yl)ethan-1-one] returned an IC50 below 100 nM.

In turn, `CC(=O)N1CCC(Nc2cc(C(=O)N3CC[C@H](N4CCc5ccccc5C4)[C@@H](O)C3)nc(C)n2)CC1` (relative stereo) [Example 111, trans-1-(4-((6-(4-(3,4-dihydroisoquinolin-2(1H)-yl)-3-hydroxypiperidine-1-carbonyl)-2-methylpyrimidin-4-yl)amino)piperidin-1-yl)ethan-1-one] displayed an IC50 below 100 nM.

Take `COc1ccc(Nc2cc(N3CC[C@H](N4CCc5ccccc5C4)[C@@H](O)C3)ncn2)cc1` (relative stereo) [Example 55, trans-4-(3,4-dihydroisoquinolin-2(1H)-yl)-1-(6-((4-methoxyphenyl)amino)pyrimidin-4-yl)piperidin-3-ol]: the IC50 was below 100 nM.

Molecule `Cc1ccccc1Nc1cc(N2CC[C@H](N3CCc4ccccc4C3)[C@@H](O)C2)ncn1` (relative stereo) [Example 46, trans-1-(6-((2-methylphenyl)amino)pyrimidin-4-yl)-4-(3,4-dihydroisoquinolin-2(1H)-yl)piperidin-3-ol] registered an IC50 below 100 nM.

The test system of the next test is Xenograft models of small cell lung cancer (SCLC), non-small cell lung cancer (NSCLC), acute myeloid leukemia (AML) and non-Hodgkin's lymphoma.
Test: not given
The conditions noted are these: cited from earlier work.
`Nc1nc2cc(CC[C@H]3C[C@@H](n4ccc5c(N)ncnc54)[C@H](O)[C@@H]3O)ccc2cc1Br` [JNJ-64619178]: the tumor growth inhibited entry is recorded as “up to 99%”.

Usually IC50 stands for the concentration that inhibits the measured activity by half. Low readings indicate greater potency, high ones weaker potency.

Values taken from patent US20240336593A1, “Compound Having Antitumor Activity And Use Thereof” (lnnovStoneTherapeutics Limited, priority 2020, published 2024).
